Assay results as given in US7763615B2, “Ecteinascidin analogs for use as antitumour agents” (priority 2001, dated 2010).
Where two headings read alike, the source gives them in different places.

Columns and labels:
[1] = system: FDC-P1, normal mouse myelogeous stem cells; details: 24 h
[2] = system: NRK-52E, normal rat kidney cells; details: 24 h
[3] = system: L8, normal rat skeletal muscle cells; details: 24 h
H-MEC-1 = assay: Inhibition of cells growth by colorimetric assay (SRB), H-MEC-1; assay type: cell-based; details: H-MEC-1, 48 hours exposure, SRB
Description: (§1) The finality of these assays is to interrupt the growth of a “in vitro” tumor cell culture by means of a continued exhibition of the cells to the sample to be testing.
(§2) A colorimetric type of assay, using sulphorhodamine B (SRB) reaction has been adapted for a quantitative measurement of cell growth and viability [following the technique described by Philip Skehan, et al. (1990), New colorimetric cytotoxicity assay for anticancer drug screening, J. Natl. Cancer Inst., 82:1107-1112]
(§3) This form of the assay employs 96 well cell culture microplates of 9 mm diameter (Faircloth, 1988; Mosmann, 1983). Most of the cell lines are obtained from American Type Culture Collection (ATCC) derived from different human cancer types.
(§4) Cells are maintained in RPMI 1640 10% FBS, supplemented with 0.1 g/l penicillin and 0.1 g/l streptomycin sulphate and then incubated at 37° C., 5% CO2 and 98% humidity. For the experiments, cells were harvested from subconfluent cultures using trypsin and resuspended in fresh medium before plating.
(§5) Cells are seeded in 96 well microtiter plates, at 5×10^3 cells per well in aliquots of 195 μl medium, and they are allowed to attach to the plate surface by growing in drug free medium for 18 hours. Afterward, samples are added in aliquots of 5 μl in a ranging from 10 to 10^−8 μg/ml, dissolved in DMSO/EtOH/PBS (0.5:0.5:99). After 48 hours exposure, the antitumor effect are measured by the SRB methodology: cells are fixed by adding 50 μl of cold 50% (wt/vol) trichloroacetic acid (TCA) and incubating for 60 minutes at 4° C. Plates are washed with deionized water and dried. One hundred μl of SRB solution (0.4% wt/vol in 1% acetic acid) is added to each microtiter well and incubated for 10 minutes at room temperature. Unbound SRB is removed by washing with 1% acetic acid. Plates are air dried and bound stain is solubilized with Tris buffer. Optical densities are read on a automated spectrophotometric plate reader at a single wavelength of 490 nm.
(§6) The values for mean+/− SD of data from triplicate wells are calculated. Some parameters for cellular responses can be calculated: GI=growth inhibition, TGI=total growth inhibition (cytostatic effect) and LC=cell killing (cytotoxic effect).

MEL-28 = assay: cells; assay type: cell-based; details: Homo sapiens, SK-MEL-28, 48 h; for GI50 / IC (TGI): MEL-28, 48 hours exposure, SRB
Description: as §1, §2, §3, §4, §5, §6

IGROV-ET = assay: cells; assay type: cell-based; details: IGROV-ET, 48 hours exposure, SRB
Description: as §1, §2, §3, §4, §5, §6

SK-BR3 = assay: cells; assay type: cell-based; details: SK-BR3, 48 hours exposure, SRB
Description: as §1, §2, §3, §4, §5, §6

PANC-1 = assay: cells; assay type: cell-based; details: PANC-1, 48 hours exposure, SRB
Description: as §1, §2, §3, §4, §5, §6

LOVO-DOX = assay: cells; assay type: cell-based; details: LOVO-DOX, 48 hours exposure, SRB
Description: as §1, §2, §3, §4, §5, §6

K562 = assay: cells; assay type: cell-based
Description: as §1, §2, §3, §4, §5, §6

LOVO = assay: cells; assay type: cell-based; details: LOVO, 48 hours exposure, SRB
Description: as §1, §2, §3, §4, §5, §6

DU145 = assay: cells; assay type: cell-based; details: for CC50: read-out: LC50
Description: as §1, §2, §3, §4, §5, §6

LNCAP = assay: cells; assay type: cell-based; details: LNCAP, 48 hours exposure, SRB
Description: as §1, §2, §3, §4, §5, §6

IGROV = assay: cells; assay type: cell-based
Description: as §1, §2, §3, §4, §5, §6

A549 = assay: cells; assay type: cell-based; details: for GI50: read-out: GI50; for IC (TGI): read-out: TGI
Description: as §1, §2, §3, §4, §5, §6

HT29 = assay: cells; assay type: cell-based
Description: as §1, §2, §3, §4, §5, §6

SK-OV3 = assay: Inhibition of cells growth by colorimetric assay (SRB), SK-OV3; assay type: cell-based; details: SK-OV3, 48 hours exposure, SRB
Description: as §1, §2, §3, §4, §5, §6

[4] = system: AML-12, normal mouse liver cells; details: 24 h
A498 = assay: cells; assay type: cell-based; details: Homo sapiens
Description: as §1, §2, §3, §4, §5, §6

MCF = assay: cells; assay type: cell-based; details: Homo sapiens
Description: as §1, §2, §3, §4, §5, §6

SW-620 = assay: cells; assay type: cell-based; details: Homo sapiens
Description: as §1, §2, §3, §4, §5, §6

MB231 = assay: cells; assay type: cell-based; details: Homo sapiens
Description: as §1, §2, §3, §4, §5, §6

[5] = Homo sapiens, HT-29, 48 h, read-out: LC50, HT29, 48 hours exposure, SRB
[6] = Homo sapiens, DU-145, 48 h, DU145, 48 hours exposure, SRB
[7] = Homo sapiens, A549, 48 h, A549, 48 hours exposure, SRB
[8] = Homo sapiens, HT-29, 48 h, HT29, 48 hours exposure, SRB
[9] = Homo sapiens, HMEC-1, read-out: LC50 (the source's name)
[10] = Homo sapiens, A549, 48 h, A549, 48 hours exposure, SRB, read-out: LC50 (the source's name)
[11] = Homo sapiens, HT-29, 48 h, HT29, 48 hours exposure, SRB, read-out: LC50 (the source's name)

## COc1c(C)cc2c(c1O)[C@@H]1C3[C@@H]4SC[C@]5(C(=O)COC[C@@H](c6c7c(c(C)c(OC(C)=O)c64)OCO7)N3[C@@H](O)[C@H](C2)N1C)c1[nH]c2ccccc2c1CCN5C (stereo partly shown) [Compound 39]
[1]
  Myelo: 4.10E−07
[2]
  Kidney: 9.88E−05
[3]
  Skeletal: 4.58E−07
H-MEC-1
  GI50: 58.1 nM
  TGI: 1.46E−06 Molar
H-MEC-1; read-out: LC50
  CC50: 13000 nM
MEL-28
  GI50: 34.7 nM
  IC (TGI): 69.1 nM
MEL-28; read-out: LC50, MEL-28, 48 hours exposure, SRB
  CC50: 181 nM
IGROV-ET
  GI50: 82.5 nM
  TGI: 4.04E−06 Molar
IGROV-ET; read-out: LC50
  CC50: 13000 nM
SK-BR3
  GI50: 49.9 nM
  TGI: 1.10E−07 Molar
SK-BR3; read-out: LC50
  CC50: 944 nM
PANC-1
  GI50: 60.1 nM
  TGI: 9.22E−07 Molar
PANC-1; read-out: LC50
  CC50: 13000 nM
LOVO-DOX
  GI50: 234 nM
  TGI: 9.94E−07 Molar
LOVO-DOX; read-out: LC50
  CC50: 13000 nM
K562; Homo sapiens, K562, 48 h, read-out: LC50, K562, 48 hours exposure, SRB
  CC50: 79.2 nM
K562; K562, 48 hours exposure, SRB
  GI50: 25.1 nM
  TGI: 4.46E−08 Molar
LOVO
  GI50: 32.1 nM
  TGI: 6.22E−08 Molar
LOVO; read-out: LC50
  CC50: 120 nM
DU145; DU145, 48 hours exposure, SRB
  GI50: 55.9 nM
  TGI: 2.03E−06 Molar
  CC50: 13000 nM
LNCAP
  GI50: 20.5 nM
  TGI: 4.41E−08 Molar
LNCAP; read-out: LC50
  CC50: 94.7 nM
IGROV; 48 hours exposure, SRB
  GI50: 43 nM
  TGI: 8.15E−08 Molar
IGROV; read-out: LC50, 48 hours exposure, SRB
  CC50: 2320 nM
A549; A549, 48 hours exposure, SRB
  TGI: 8.74E−08 Molar
  GI50: 46.7 nM
A549; read-out: LC50, A549, 48 hours exposure, SRB
  CC50: 2320 nM
HT29; HT29, 48 hours exposure, SRB
  GI50: 48.5 nM
  TGI: 1.73E−05 Molar
HT29; [5]
  CC50: 13000 nM
SK-OV3
  GI50: 62.4 nM
  TGI: 3.19E−07 Molar
SK-OV3; read-out: LC50
  CC50: 13000 nM
[4]
  Liver: 1.14E−06

## COc1c(C)cc2c(c1O)[C@@H]1C3[C@@H]4SC[C@]5(NCCc6c5[nH]c5ccccc65)C(=O)COC[C@@H](c5c6c(c(C)c(OC(=O)C(F)(F)C(F)(F)C(F)(F)F)c54)OCO6)N3[C@@H](O)[C@H](C2)N1C (stereo partly shown) [Compound 62]
MEL-28
  GI50: 3.3 nM
  IC (TGI): 1.1 nM
MEL-28; read-out: LC50
  CC50: 33 nM
A498; A498, 48 h, read-out: LC50
  CC50: 11 nM
A498; A498, 48 hours exposure, SRB
  GI50: 3.3 nM
  IC (TGI): 4.4 nM
MCF; 48 h, read-out: LC50
  CC50: 110 nM
MCF; MCF, 48 hours exposure, SRB
  GI50: 2.2 nM
MCF; MCF, 48 hours exposure, SRB, read-out: TGI
  IC (TGI): 9.9 nM
DU145; [6]
  GI50: 2.2 nM
  IC (TGI): 4.4 nM
DU145; Homo sapiens, DU-145, 48 h
  CC50: 9.9 nM
SW-620; SW-620, 48 h, read-out: LC50
  CC50: 110 nM
SW-620; SW-620, 48 hours exposure, SRB
  IC (TGI): 55 nM
SW-620; SW-620, 48 hours exposure, SRB, read-out: GI50
  GI50: 22 nM
A549; [7]
  GI50: 8.8 nM
  IC (TGI): 33 nM
A549; Homo sapiens, A549, 48 h, read-out: LC50, A549, 48 hours exposure, SRB
  CC50: 77 nM
HT29; [8]
  GI50: 11 nM
  IC (TGI): 66 nM
HT29; [5]
  CC50: 99 nM
MB231; 48 h, read-out: LC50
  CC50: 33 nM
MB231; MB231, 48 hours exposure, SRB
  GI50: 1.1 nM
MB231; MB231, 48 hours exposure, SRB, read-out: TGI
  IC (TGI): 5.5 nM

## COc1c(C)cc2c(c1O)[C@@H]1C3[C@@H]4SC[C@]5(NCCc6c5[nH]c5ccccc65)C(=O)COC[C@@H](c5c6c(c(C)c(OC(=O)OC(C)(C)C)c54)OCO6)N3[C@@H](O)[C@H](C2)N1C (stereo partly shown) [Compound 65]
H-MEC-1; Homo sapiens, HMEC-1, 48 h
  GI50: 0.613 nM
  IC (TGI): 43.5 nM
H-MEC-1; [9]
  CC50: 12300 nM
A549; [7]
  GI50: 2.05 nM
  IC (TGI): 6.3 nM
A549; [10]
  CC50: 47.9 nM
HT29; [8]
  GI50: 0.856 nM
  IC (TGI): 20.5 nM
HT29; [11]
  CC50: 12300 nM

## COc1c(C)cc2c(c1OC(C)(C)C)[C@@H]1C3[C@@H]4SC[C@]5(NCCc6c5[nH]c5ccccc65)C(=O)COC[C@@H](c5c6c(c(C)c(OC(=O)OC(C)(C)C)c54)OCO6)N3[C@@H](O)[C@H](C2)N1C (stereo partly shown) [Compound 66]
H-MEC-1; Homo sapiens, HMEC-1, 48 h
  GI50: 20.7 nM
  IC (TGI): 80.4 nM
H-MEC-1; [9]
  CC50: 11000 nM
A549; [7]
  GI50: 20.9 nM
  IC (TGI): 57.5 nM
A549; [10]
  CC50: 376 nM
HT29; [8]
  GI50: 28 nM
  IC (TGI): 113 nM
HT29; [11]
  CC50: 11000 nM

## C=COC(=O)Oc1c(C)c2c(c3c1[C@H]1SC[C@]4(NCCc5c4[nH]c4ccccc54)C(=O)COC[C@@H]3N3C1[C@H]1c4c(cc(C)c(OC)c4O)C[C@@H]([C@@H]3O)N1C)OCO2 (stereo partly shown) [Compound 67]
H-MEC-1; Homo sapiens, HMEC-1, 48 h
  GI50: 0.521 nM
  IC (TGI): 128 nM
H-MEC-1; [9]
  CC50: 12800 nM
A549; [7]
  GI50: 0.455 nM
  IC (TGI): 2.86 nM
A549; [10]
  CC50: 128 nM
HT29; [8]
  GI50: 1.9 nM
  IC (TGI): 128 nM
HT29; [11]
  CC50: 12800 nM
